Tests used:
Test in all cases: GR value, 72 h; higher = faster growth (1 = untreated, <0 = killing);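 also: breast cancer and non-malignant breast epithelial lines, nine half-log doses, viable cells counted by Hoechst and LIVE/DEAD dye imaging versus time-zero plates and DMSO controls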
Ipatasertib/GDC0068 = compound: CC(C)NC[C@@H](C(=O)N1CCN(c2ncnc3c2[C@H](C)C[C@H]3O)CC1)c1ccc(Cl)cc1 [Ipatasertib/GDC0068]
BVD523 = compound: CC(C)Nc1cc(-c2c[nH]c(C(=O)N[C@H](CO)c3cccc(Cl)c3)c2)c(Cl)cn1 [BVD523]
INK128/MLN0128 = compound: CC(C)n1nc(-c2ccc3oc(N)nc3c2)c2c(N)ncnc21 [INK128/MLN0128]
Luminespib/NVP-AUY922 = compound: CCNC(=O)c1noc(-c2cc(C(C)C)c(O)cc2O)c1-c1ccc(CN2CCOCC2)cc1 [Luminespib/NVP-AUY922]
AZD2014 = compound: CNC(=O)c1cccc(-c2ccc3c(N4CCOC[C@@H]4C)nc(N4CCOC[C@@H]4C)nc3n2)c1 [AZD2014]
[1] = compound: CNc1nc(-c2ccc3c(N)n[nH]c3c2)cc(N2C[C@@H](C(=O)NC3CCCCC3)CC[C@H]2C)n1
[2] = compound: CO[C@@H](C)Cn1c(=O)n(C)c2cnc3ccc(-c4cncc(C(C)(C)O)c4)cc3c21
Cabozantinib = compound: COc1cc2nccc(Oc3ccc(NC(=O)C4(C(=O)Nc5ccc(F)cc5)CC4)cc3)c2cc1OC [Cabozantinib]
AZD6738 = compound: C[C@@H]1COCCN1c1cc(C2([S@](C)(=N)=O)CC2)nc(-c2cc[nH]c3nccc2-3)n1 [AZD6738]
AZD5363 = compound: NC1(C(=O)N[C@@H](CCO)c2ccc(Cl)cc2)CCN(c2nc[nH]c3nccc2-3)CC1 [AZD5363]
Buparlisib/NVP-BKM120 = compound: Nc1cc(C(F)(F)F)c(-c2cc(N3CCOCC3)nc(N3CCOCC3)n2)cn1 [Buparlisib/NVP-BKM120]
Olaparib/AZD2281 = compound: O=C(c1cc(Cc2n[nH]c(=O)c3ccccc23)ccc1F)N1CCN(C(=O)C2CC2)CC1 [Olaparib/AZD2281]

AU565 gave a GR value (Ipatasertib/GDC0068; 0.001 µM) of 1.03 GR, a GR value (Ipatasertib/GDC0068; 0.003162 µM) of 1.08 GR and a GR value (Ipatasertib/GDC0068; 0.01 µM) of 1.03 GR. For the same cell line, the GR value (Ipatasertib/GDC0068; 0.03162 µM) was 0.996 GR, the GR value (Ipatasertib/GDC0068; 0.1 µM) was 0.976 GR and the GR value (Ipatasertib/GDC0068; 0.3162 µM) was 0.809 GR. The GR value (Ipatasertib/GDC0068; 1 µM) was 0.772 GR, the GR value (Ipatasertib/GDC0068; 3.162 µM) was 0.55 GR and the GR value (Ipatasertib/GDC0068; 10 µM) was 0.289 GR. For the same cell line, the GR value (BVD523; 0.001 µM) was 1.17 GR, the GR value (BVD523; 0.003162 µM) was 0.925 GR and the GR value (BVD523; 0.01 µM) was 1.04 GR. It also gave a GR value (BVD523; 0.03162 µM) of 0.941 GR, a GR value (BVD523; 0.1 µM) of 1.06 GR and a GR value (BVD523; 0.3162 µM) of 0.956 GR. For the same cell line, the GR value (BVD523; 1 µM) was 0.985 GR, the GR value (BVD523; 3.162 µM) was 0.761 GR and the GR value (BVD523; 10 µM) was 0.525 GR. It also gave a GR value (INK128/MLN0128; 0.0003162 µM) of 0.889 GR, a GR value (INK128/MLN0128; 0.001 µM) of 0.931 GR and a GR value (INK128/MLN0128; 0.003162 µM) of 0.62 GR. It also gave a GR value (INK128/MLN0128; 0.01 µM) of 0.249 GR, a GR value (INK128/MLN0128; 0.03162 µM) of 0.0411 GR and a GR value (INK128/MLN0128; 0.1 µM) of -0.0783 GR. It also gave a GR value (INK128/MLN0128; 0.3162 µM) of -0.0838 GR, a GR value (INK128/MLN0128; 1 µM) of -0.184 GR and a GR value (INK128/MLN0128; 3.162 µM) of -0.48 GR. For the same cell line, the GR value (Luminespib/NVP-AUY922; 0.0001 µM) was 0.887 GR, the GR value (Luminespib/NVP-AUY922; 0.0003162 µM) was 0.966 GR and the GR value (Luminespib/NVP-AUY922; 0.001 µM) was 0.942 GR. For the same cell line, the GR value (Luminespib/NVP-AUY922; 0.003162 µM) was 0.648 GR, the GR value (Luminespib/NVP-AUY922; 0.01 µM) was 0.165 GR and the GR value (Luminespib/NVP-AUY922; 0.03162 µM) was -0.079 GR. It also gave a GR value (Luminespib/NVP-AUY922; 0.1 µM) of -0.156 GR, a GR value (Luminespib/NVP-AUY922; 0.3162 µM) of -0.214 GR and a GR value (Luminespib/NVP-AUY922; 1 µM) of -0.227 GR. For the same cell line, the GR value (AZD2014; 0.001 µM) was 0.592 GR, the GR value (AZD2014; 0.003162 µM) was 0.509 GR and the GR value (AZD2014; 0.01 µM) was 0.415 GR. For the same cell line, the GR value (AZD2014; 0.03162 µM) was 0.249 GR, the GR value (AZD2014; 0.1 µM) was 0.219 GR and the GR value (AZD2014; 0.3162 µM) was 0.149 GR. The GR value (AZD2014; 1 µM) was 0.106 GR, the GR value (AZD2014; 3.162 µM) was -0.0159 GR and the GR value (AZD2014; 10 µM) was -0.0097 GR. For the same cell line, the GR value ([1]; 0.001 µM) was 0.974 GR, the GR value ([1]; 0.003162 µM) was 0.901 GR and the GR value ([1]; 0.01 µM) was 0.723 GR. It also gave a GR value ([1]; 0.03162 µM) of 0.933 GR, a GR value ([1]; 0.1 µM) of 0.894 GR and a GR value ([1]; 0.3162 µM) of 0.766 GR. It also gave a GR value ([1]; 1 µM) of 0.655 GR, a GR value ([1]; 3.162 µM) of 0.747 GR and a GR value ([1]; 10 µM) of 0.392 GR. For the same cell line, the GR value ([2]; 0.001 µM) was 0.518 GR, the GR value ([2]; 0.003162 µM) was 0.487 GR and the GR value ([2]; 0.01 µM) was 0.464 GR. The GR value ([2]; 0.03162 µM) was 0.273 GR, the GR value ([2]; 0.1 µM) was 0.269 GR and the GR value ([2]; 0.3162 µM) was 0.0911 GR. For the same cell line, the GR value ([2]; 1 µM) was 0.0661 GR, the GR value ([2]; 3.162 µM) was -0.0273 GR and the GR value ([2]; 10 µM) was -0.533 GR. For the same cell line, the GR value (Cabozantinib; 0.001 µM) was 1.03 GR, the GR value (Cabozantinib; 0.003162 µM) was 1.04 GR and the GR value (Cabozantinib; 0.01 µM) was 1.03 GR. For the same cell line, the GR value (Cabozantinib; 0.03162 µM) was 1.06 GR, the GR value (Cabozantinib; 0.1 µM) was 1.06 GR and the GR value (Cabozantinib; 0.3162 µM) was 1.12 GR. It also gave a GR value (Cabozantinib; 1 µM) of 0.997 GR, a GR value (Cabozantinib; 3.162 µM) of 1.02 GR and a GR value (Cabozantinib; 10 µM) of 0.309 GR. It also gave a GR value (AZD6738; 0.001 µM) of 0.973 GR, a GR value (AZD6738; 0.003162 µM) of 0.919 GR and a GR value (AZD6738; 0.01 µM) of 1.05 GR. For the same cell line, the GR value (AZD6738; 0.03162 µM) was 1.14 GR, the GR value (AZD6738; 0.1 µM) was 1 GR and the GR value (AZD6738; 0.3162 µM) was 0.982 GR. The GR value (AZD6738; 1 µM) was 0.897 GR, the GR value (AZD6738; 3.162 µM) was 1.08 GR and the GR value (AZD6738; 10 µM) was 0.281 GR. It also gave a GR value (AZD5363; 0.001 µM) of 1.15 GR, a GR value (AZD5363; 0.003162 µM) of 0.991 GR and a GR value (AZD5363; 0.01 µM) of 0.884 GR. For the same cell line, the GR value (AZD5363; 0.03162 µM) was 0.793 GR, the GR value (AZD5363; 0.1 µM) was 0.786 GR and the GR value (AZD5363; 0.3162 µM) was 0.717 GR. The GR value (AZD5363; 1 µM) was 0.655 GR, the GR value (AZD5363; 3.162 µM) was 0.682 GR and the GR value (AZD5363; 10 µM) was 0.399 GR. The GR value (Buparlisib/NVP-BKM120; 0.001 µM) was 1.05 GR, the GR value (Buparlisib/NVP-BKM120; 0.003162 µM) was 1.07 GR and the GR value (Buparlisib/NVP-BKM120; 0.01 µM) was 0.976 GR. It also gave a GR value (Buparlisib/NVP-BKM120; 0.03162 µM) of 0.845 GR, a GR value (Buparlisib/NVP-BKM120; 0.1 µM) of 0.505 GR and a GR value (Buparlisib/NVP-BKM120; 0.3162 µM) of 0.186 GR. The GR value (Buparlisib/NVP-BKM120; 1 µM) was -0.365 GR, the GR value (Buparlisib/NVP-BKM120; 3.162 µM) was -0.533 GR and the GR value (Buparlisib/NVP-BKM120; 10 µM) was -0.494 GR. The GR value (Olaparib/AZD2281; 0.001 µM) was 0.901 GR, the GR value (Olaparib/AZD2281; 0.003162 µM) was 1 GR and the GR value (Olaparib/AZD2281; 0.01 µM) was 1.02 GR. The GR value (Olaparib/AZD2281; 0.03162 µM) was 1.04 GR, the GR value (Olaparib/AZD2281; 0.1 µM) was 1 GR and the GR value (Olaparib/AZD2281; 0.3162 µM) was 0.907 GR. The GR value (Olaparib/AZD2281; 1 µM) was 0.942 GR, the GR value (Olaparib/AZD2281; 3.162 µM) was 0.979 GR and the GR value (Olaparib/AZD2281; 10 µM) was 0.577 GR.
